Source: paper PMC4452638, “Synthesis and preclinical evaluation of DOTAGA-conjugated PSMA ligands for functional imaging and endoradiotherapy of prostate cancer” (EJNMMI Research, 2014)

How the values were obtained:
PSMA = target: T1, PSMA (Homo sapiens, UniProt Q04609); assay: Competitive PSMA binding assay on LNCaP cells with ([125I]I-BA)KuE as radioligand; settings: LNCaP cells 150,000/well, ([125I]I-BA)KuE c = 0.2 nM, HBSS (1% BSA), 4°C, 1 h, mean ± SD (n = 3); read-out: IC50 (PSMA affinity)
T1 construct: host or cells: LNCaP human prostate carcinoma cells
Protocol: (§1) Cell culture: PSMA^+ LNCaP cells (CLS: 300265) were grown in DMEM/Nutrition Mix F-12 with Glutamax-I (1:1) (Invitrogen, Life Technologies, Darmstadt, Germany) supplemented with 10% FCS. Cultures were maintained at 37°C in a 5% CO2/humidified air atmosphere. One day prior to the experiment, cells were harvested using Trypsin/EDTA (0.05% and 0.02%) in PBS, centrifuged and resuspended with culture medium. For cell counting, a Countesse automated cell counter (Invitrogen, Carlsbad, USA) was used. All in vitro binding and internalization studies were performed using live cells seeded 1 day prior to the experiment. For IC50 determination, 150,000 cells/mL were transferred to 24-well plates (1 mL/well), and for internalization studies, 125,000 cells/mL were transferred into PLL-coated 24-well plates.
Then, 25 μL/well of either HBSS (1% BSA; control) or of solutions containing the respective unlabelled ligand of interest in increasing concentrations (10^-10-10^-4 M in HBSS (1% BSA)) was added, followed by the addition of 25 μL of ([^125I]I-BA)KuE in HBSS (1% BSA). Experiments were carried out in triplicate for each concentration. The final radioligand concentration was 0.2 nM in all binding assays. Cells were incubated on ice for 60 min. Incubation was terminated by the removal of the incubation medium. Cells were thoroughly rinsed with 250 μL of HBSS. The wash medium was combined with the supernatant of the previous step. This fraction represents the amount of free radioligand. Cells were then lysed using 250 μL of 1 N NaOH, the lysate was transferred to vials and combined with 250 μL of HBSS used for rinsing the wells. Quantification of the amount of free and bound activity was performed in a γ-counter.
The PSMA binding affinities were determined in a competitive binding assay using LNCaP human prostate carcinoma cells and the known high affinity PSMA ligand ([^125I]I-BA)KuE [10] (c = 0.2 nM) as the radioligand. The IC50 values for the metal-free PSMA-inhibiting compounds and their respective ^natGa and ^natLu complexes are summarized in Table 1. HBED-CC-Ahx-KuE and [^natGa]HBED-CC-Ahx-KuE [12] were included in this study as reference compounds.

[1] = system: PSMA-expressing LNCaP cells; assay: Internalization studies / cell binding in LNCaP cells; format: cell-based, human; settings: 37°C, 1 h, 125,000 cells/well, corrected for unspecific binding
Protocol: as §1
Internalization studies: The culture medium was removed, and the cells were washed once with 500 μL DMEM-F12 (5% BSA) before being left to equilibrate in 200 μL DMEM-F12 (5% BSA) at 37°C for a minimum of 15 min. Then, 25 μL (per well) of either DMEM-F12 (5% BSA) or of a 100-μM PMPA solution (blocking) was added, followed by the addition of 25 μL of ^68Ga/^177Lu-labelled PSMA ligand. The final radioligand concentration was 0.2/0.5 nM in all internalization assays. To determine internalization kinetics, cells were then incubated at 37°C for 5, 15, 30 and 60 min, respectively. Experiments were carried out in triplicate for each time point (control and blocking). Incubation was terminated by placing the plate on ice for approximately 1 min and by subsequent removal of the incubation medium. Cells were thoroughly rinsed with 250 μL of PBS. The wash medium was combined with the supernatant of the previous step. This fraction represents the amount of free radioligand. To remove receptor surface bound radioactivity, the cells were then incubated for 10 min with 250 μL of ice cold PMPA solution (10 μM in PBS). After removal of the supernatant, the cells were thoroughly rinsed with another 250 μL of ice cold PBS. Both fractions were combined. The internalized activity was released by incubation with 250 μL of 1 N NaOH, transferred to vials and combined with 250 μL of 1 N NaOH used for rinsing the wells. Quantification of the amount of free, PMPA-releasable and internalized activity was performed in a γ-counter.
The cellular uptake and internalization kinetics of the different ^68Ga- and ^177Lu-labelled PSMA ligands was determined using PSMA-expressing LNCaP cells. In the case of the ^68Ga-labelled compounds, the final peptide concentration in the assays was 0.2 nM. […] All internalization studies were accompanied by reference studies using ([^125I]I-BA)KuE (c = 0.2 nM). This experimental setup allows data normalization and eliminates the influence of cell count and cell viability on absolute cellular tracer uptake. […] Furthermore, to be able to discriminate between total cellular activity (sum of membrane associated and internalized activity) and internalized activity, all incubations were followed by a washing step with 10 μM PMPA at 4°C to remove specifically cell-surface bound radioligand by displacement.

[2] = Determination of lipophilicity (shake flask, n-octanol/PBS); format: physicochemical
Protocol: To a solution of 0.5 to 1 MBq of radiolabelled peptide in 500 μl of phosphate-buffered saline (PBS, pH 7.4), 500 μl of n-octanol was added (n = 6). Vials were vortexed vigorously for 3 min. To achieve quantitative phase separation, the vials were centrifuged at 6,000 g for 5 min in a Biofuge 15 (Heraeus Sepatech, Osterode, Germany). The activity concentrations in 100 μl-samples of both the aqueous and the organic phase were measured in a γ-counter. Both the partition coefficient P(o/w), which is defined as the molar concentration ratio of a single species A between n-octanol and water at equilibrium, and logP(o/w), which is an important parameter used to characterize lipophilicity of a compound, were calculated.
The partition coefficient logP between n-octanol and PBS was determined for the compounds listed in Table 3 using the shake flask method. All compounds are highly hydrophilic, with the DOTAGA compounds being up to one order of magnitude more hydrophilic than the corresponding DOTA analogues. Amongst all compounds tested, [^68Ga]HBED-CC-Ahx-KuE was the most hydrophilic compound.

[3] = In vivo metabolite analysis by radio-HPLC; settings: CD-1 nu/nu mice, 0.5 h p.i.
Protocol: (§2) ^177Lu-10 and ^177Lu-11 were incubated in 80 μL of human serum (37°C) and 80 μL 0.4 M DTPA solution (RT), respectively and after 1, 24 and 48 h, the stability was determined by TLC analysis. The ^68Ga-labelled tracers (40 to 45 MBq) were injected into the tail vein of CD-1 nu/nu mice. The animals were sacrificed after 30 min, and urine, blood and kidney samples were taken. The kidney was frozen in liquid nitrogen, homogenized with a ball mill and extracted with 0.2 to 1 mL PBS containing 200 nmol 2-(phosphonomethyl)pentane-1,5-dioic acid (PMPA). The suspension was first centrifuged (15,000 g), and after ultrafiltration, the extracts were analysed by RP-HPLC. The blood samples were centrifuged to separate the plasma from the blood cells. Plasma proteins were removed by precipitation with acetonitrile (10 min, 4°C) and subsequent centrifugation and ultrafiltration. The blood extract was also analysed by RP-HPLC.
To investigate the influence of the amino acid composition of the spacer (KFF vs kff) on the metabolic stability in vivo, tissue homogenates and body fluids of mice injected with ^68Ga-11 and ^68Ga-12 were analysed by radio-HPLC. Extraction efficiencies from the blood and from the kidney were 56% and 43% for ^68Ga-11 and 61% and 62% for ^68Ga-12, respectively.

LNCaP tumour xenograft = assay: Biodistribution in LNCaP-tumour-bearing mice; format: in vivo; settings: LNCaP-tumour bearing CD-1 nu/nu mice, 1 h p.i.
Protocol: All animal experiments were conducted in accordance with general animal welfare regulations in Germany (Deutsches Tierschutzgesetz, approval #55.2-1-54-2532-71-13). The prostate cancer cell line LNCaP was suspended 1/1 in serum-free medium and Matrigel (BD Biosciences, Germany) and approximately 10^7 cells in 200 μL were inoculated subcutaneously on the right shoulder of 6 to 8 weeks old CD-1 nu/nu mice (Charles River Laboratories). Tumours were grown for 2 to 4 weeks (males) and 4 to 6 weeks (females) to reach 4 to 8 mm in diameter.
Biodistribution: The ^68Ga-labelled PSMA ligands (approximately 7 to 15 MBq, 0.1 to 0.2 nmol) were injected into the tail vein of isoflurane anesthetized animals. The organ distribution was examined 1 h p.i. and quantified in a γ-counter.
A comparison of the biodistribution of compounds ^68Ga-11, ^68Ga-12 and the reference [^68Ga]HBED-CC-Ahx-KuE in LNCaP-tumour-bearing CD-1 nu/nu mice (1 h p.i.) is shown in Figure 7.

[4] = Stability in human serum (TLC analysis); format: in vitro ADME; settings: 37°C, 48 h
Protocol: as §2
(§3) The stability of ^177Lu-10 and ^177Lu-11 was investigated by incubation in human serum for 48 h at 37°C and by DTPA challenge (0.4 M, RT, 48 h) and subsequent TLC analysis. Release of ^177Lu^III from the complexes was not observed under the respective experimental conditions in the examined time frame.

[5] = DTPA challenge (TLC analysis); format: physicochemical; settings: DTPA challenge 0.4 M, RT, 48 h
Protocol: as §2, §3

[6] = n-octanol/PBS pH 7.4, mean ± SD (n = 6)

T1 sequence (Q04609 whole entry): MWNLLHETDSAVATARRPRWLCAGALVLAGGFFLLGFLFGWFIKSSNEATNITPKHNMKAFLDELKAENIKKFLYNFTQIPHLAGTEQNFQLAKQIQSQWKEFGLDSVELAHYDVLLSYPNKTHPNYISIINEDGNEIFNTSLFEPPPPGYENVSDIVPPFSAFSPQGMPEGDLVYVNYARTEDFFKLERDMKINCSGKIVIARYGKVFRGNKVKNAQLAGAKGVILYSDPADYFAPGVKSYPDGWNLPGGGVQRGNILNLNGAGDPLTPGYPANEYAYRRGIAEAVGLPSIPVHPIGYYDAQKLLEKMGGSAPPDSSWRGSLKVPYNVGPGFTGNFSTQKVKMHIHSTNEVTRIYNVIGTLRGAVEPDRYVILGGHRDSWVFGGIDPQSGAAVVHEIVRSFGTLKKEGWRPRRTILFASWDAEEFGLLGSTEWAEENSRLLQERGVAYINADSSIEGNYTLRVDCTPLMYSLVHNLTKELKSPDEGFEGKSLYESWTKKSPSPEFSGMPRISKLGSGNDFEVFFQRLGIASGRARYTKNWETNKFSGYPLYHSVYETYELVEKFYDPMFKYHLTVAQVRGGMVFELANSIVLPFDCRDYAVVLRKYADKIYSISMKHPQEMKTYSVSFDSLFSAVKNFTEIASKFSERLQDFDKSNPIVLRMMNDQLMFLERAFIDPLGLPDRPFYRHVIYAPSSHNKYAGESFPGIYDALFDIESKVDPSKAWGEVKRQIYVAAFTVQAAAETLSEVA

## O=C(O)CCc1ccc(O)c(CN(CCN(CC(=O)O)Cc2cc(CCC(=O)NCCCCCC(=O)NCCCC[C@H](NC(=O)N[C@@H](CCC(=O)O)C(=O)O)C(=O)O)ccc2O)CC(=O)O)c1 [HBED-CC-Ahx-KuE, reference compound]
PSMA
  IC50: 0.0057 ± 0.0005 µM

## O=C(O)CC[C@H](NC(=O)N[C@@H](CCCCNC(=O)CCCCCCC(=O)NCCCC[C@H](NC(=O)[C@H](Cc1ccccc1)NC(=O)[C@H](Cc1ccccc1)NC(=O)CN1CCN(CC(=O)O)CCN(CC(=O)O)CCN(CC(=O)O)CC1)C(=O)O)C(=O)O)C(=O)O [compound 10, DOTA-FFK(Sub-KuE), reference compound]
PSMA
  IC50: 0.0131 ± 0.0023 µM

## O=C(O)CC[C@H](NC(=O)N[C@@H](CCCCNC(=O)CCCCCCC(=O)NCCCC[C@H](NC(=O)[C@H](Cc1ccccc1)NC(=O)[C@H](Cc1ccccc1)NC(=O)CCC(C(=O)O)N1CCN(CC(=O)O)CCN(CC(=O)O)CCN(CC(=O)O)CC1)C(=O)O)C(=O)O)C(=O)O (some centres unmarked) [compound 11, DOTAGA-FFK(Sub-KuE)]
PSMA
  IC50: 0.0102 ± 0.0015 µM

## O=C(O)CC[C@H](NC(=O)N[C@@H](CCCCNC(=O)CCCCCCC(=O)NCCCC[C@@H](NC(=O)[C@@H](Cc1ccccc1)NC(=O)[C@@H](Cc1ccccc1)NC(=O)CCC(C(=O)O)N1CCN(CC(=O)O)CCN(CC(=O)O)CCN(CC(=O)O)CC1)C(=O)O)C(=O)O)C(=O)O (some centres unmarked) [compound 12, DOTAGA-ffk(Sub-KuE)]
PSMA
  IC50: 0.0139 ± 0.0004 µM

## [^68Ga]DOTA-FFK(Sub-KuE) [^68Ga-10, reference compound]
[1]; 68Ga compounds, c = 0.2 nM
  Internalization (1 h) in % of ([125I]I-BA)KuE: 14.6 ± 0.8%
[2]; [6]
  log P (o/w): −3.1 ± 0.2

## [^68Ga]DOTAGA-FFK(Sub-KuE) [^68Ga-11]
[1]; 68Ga compounds, c = 0.2 nM
  Internalization (1 h) in % of ([125I]I-BA)KuE: 28.4 ± 0.7%
[2]; [6]
  log P (o/w): −3.6 ± 0.1
[3]
  Intact tracer in blood: 21%

## [^68Ga]HBED-CC-Ahx-KuE [reference compound]
LNCaP tumour xenograft
  Tracer uptake into liver: 0.5 ± 0.1 % ID/g
  Tracer uptake into lung: 1.9 ± 0.4 % ID/g
  Tracer uptake into pancreas: 0.9 ± 0.2 % ID/g
  Tracer uptake into spleen: 14.7 ± 2.6 % ID/g
  Tumour-to-blood ratio: 12.5 ± 0.7
  Tumour-to-skeletal muscle ratio: 16.2 ± 0.1
  Uptake into LNCaP tumour xenograft: 4.7 ± 0.2 % ID/g
[1]; 68Ga compounds, c = 0.2 nM
  Internalization (1 h) in % of ([125I]I-BA)KuE: 91.1 ± 1.7%
[2]; [6]
  log P (o/w): −4.1 ± 0.1

## [^177Lu]DOTA-FFK(Sub-KuE) [^177Lu-10, reference compound]
[4]
  Release of 177Lu(III) from the complex: not observed
[5]
  Release of 177Lu(III) from the complex: not observed
[1]; 177Lu compounds, c = 0.5 nM
  Internalization (1 h) in % of ([125I]I-BA)KuE: 19.3 ± 0.9%
[2]; [6]
  log P (o/w): −2.7 ± 0.02

## [^177Lu]DOTAGA-FFK(Sub-KuE) [^177Lu-11]
[4]
  Release of 177Lu(III) from the complex: not observed
[5]
  Release of 177Lu(III) from the complex: not observed
[1]; 177Lu compounds, c = 0.5 nM
  Internalization (1 h) in % of ([125I]I-BA)KuE: 36.1 ± 1.1%
[2]; [6]
  log P (o/w): −3.9 ± 0.1

## [^177Lu]DOTAGA-ffk(Sub-KuE) [^177Lu-12]
[1]; 177Lu compounds, c = 0.5 nM
  Internalization (1 h) in % of ([125I]I-BA)KuE: 44.4 ± 1.8%
[2]; n-octanol/PBS, listed for 11/12 but determined for the FFK analogue 11 only (footnote a)
  log P (o/w): −3.9 ± 0.1

## [^natGa]DOTA-FFK(Sub-KuE) [^natGa-10, reference compound]
PSMA
  IC50: 0.0295 ± 0.0066 µM

## [^natGa]DOTAGA-FFK(Sub-KuE) [^natGa-11]
PSMA
  IC50: 0.0121 ± 0.0039 µM

## [^natGa]DOTAGA-ffk(Sub-KuE) [^natGa-12]
PSMA
  IC50: 0.0159 ± 0.0005 µM

## [^natGa]HBED-CC-Ahx-KuE [reference compound]
PSMA
  IC50: 0.0061 ± 0.0008 µM

## [^natLu]DOTA-FFK(Sub-KuE) [^natLu-10, reference compound]
PSMA
  IC50: 0.0547 ± 0.0061 µM

## [^natLu]DOTAGA-FFK(Sub-KuE) [^natLu-11]
PSMA
  IC50: 0.0151 ± 0.0015 µM

## [^natLu]DOTAGA-ffk(Sub-KuE) [^natLu-12]
PSMA
  IC50: 0.0131 ± 0.0022 µM
